From patent US11458132B2, “Quinolin-2(1H)-one inhibitors of Late SV40 Factor” (TRUSTEES OF BOSTON UNIVERSITY, priority 2020, dated 2022)

How the values were obtained:
FH-B cells [1] = test: MTS cell proliferation assay; format: cell-based, human; settings: for GI50: Homo sapiens, FH-B cells, MTS assay, 72 hour treatment
Procedure: MTS Cell Proliferation Assay: Three thousand FH-B cells were seeded per well in a 96-well plate and incubated at 37° C. for 20 hours. Compound dilutions were prepared in DMSO and added to the cell culture media to a final DMSO concentration of 1% for a 72 hour treatment. Cell growth inhibition was assessed by measuring absorbance at 490 nm using the Promega CellTiter 96® AQueous One Solution Cell Proliferation Assay (Promega, G358C). Percent growth inhibition was determined by the ratio of the absorbance of treatment wells to the absorbance of control wells. A non-linear regression plot of the percentage of growth inhibition versus compound concentration was prepared using GraphPad Prism software, using settings for the curves of variable slope and four parameters. The relative GI50 value was determined from the curve as the concentration of drug that provokes a response halfway between the top and bottom plateaus of the curve.

LSF = target: T1, LSF (Homo sapiens, UniProt Q12800); test: Cellular thermal shift assay (CETSA) in Huh7 cells; format: binding; settings: 50 μM, three hours, vs DMSO
T1 construct: Representative immunoblots of soluble LSF after treatment with FQI2-34 versus DMSO; endogenous in cells; host or cells: Huh7
T1 sequence (Q12800 1-502): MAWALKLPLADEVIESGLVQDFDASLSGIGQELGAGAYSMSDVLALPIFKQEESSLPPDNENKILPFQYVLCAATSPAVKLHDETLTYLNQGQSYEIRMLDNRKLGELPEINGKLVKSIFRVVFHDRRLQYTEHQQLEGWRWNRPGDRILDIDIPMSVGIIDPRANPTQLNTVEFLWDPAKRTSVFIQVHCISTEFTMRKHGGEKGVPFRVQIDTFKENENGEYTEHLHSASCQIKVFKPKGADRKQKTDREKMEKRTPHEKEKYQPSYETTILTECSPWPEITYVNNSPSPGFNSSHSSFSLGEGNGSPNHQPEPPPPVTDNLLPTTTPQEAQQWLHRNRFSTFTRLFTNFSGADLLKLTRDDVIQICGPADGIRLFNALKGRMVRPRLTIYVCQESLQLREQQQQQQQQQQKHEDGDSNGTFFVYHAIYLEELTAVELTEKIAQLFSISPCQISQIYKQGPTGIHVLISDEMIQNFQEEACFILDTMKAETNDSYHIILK
Procedure: Cellular Thermal Shift Assay (CETSA): Huh7 cells obtained from JCRB (Japanese Cancer Resources Bank) were cultured in DMEM medium (Corning) supplemented with 10% fetal bovine serum (Gibco). The cells were cultured at 37° C. in 5% CO2. Approximately 9×10^5 Huh7 cells were plated per 10 cm plate. After 20 hours, cells were treated for three hours with fresh media containing 50 μM FQI1, 50 μM FQI2-34, or 0.1% DMSO (FQI1 control) or 0.5% DMSO (FQI2-34 control). Subsequently, the cells were washed with PBS (137 mM NaCl, 2.7 mM KCl, 10 mM Na2HPO4, 2 mM KH2PO4, pH 7.2) supplemented with their respective treatments (FQI1, FQI2-34, or vehicle) and scraped from the dish in the presence of 5 mL of PBS supplemented with 1 mM Pefabloc (Sigma-Aldrich, 76307) plus the respective treatment. Pelleted cells were resuspended in 500 μL of PBS buffer with 1 mM Pefabloc plus the respective treatment. Aliquots of 50 μL of cell suspension from each treatment sample were incubated separately at the indicated temperatures for 3 minutes in a thermal cycler (Bio-rad, T100 Thermocyler), then cooled at the room temperature for 3 minutes. Lysates were prepared by four rounds of snap freezing and thawing. […] Films were scanned and band intensities were quantified by densitometry with Image J; a non-parametric t-test was used to determine statistical significance.

FH-B cells [2] = test: Cell spreading area / cell compaction by microscopy; format: cell-based, human
Procedure: Cells were washed as before, treated with Phalloidin-iFluor 488 Reagent (abcam, ab176753) for 1 hour in 1-5% BSA in PBS, followed by Hoechst 33342 (Thermo Fisher Scientific, H3570) for 5 minutes. Mounting medium (Fisher Scientific, P10144) and cover slips were applied onto dried cells. Individually discernible cells were imaged on an Olympus Fluoview 10i. Using ImageJ, the phalloidin channel was thresholded and area and circularity values were measured and integrated into swarmplots using Python's seaborn library.
For time lapse microscopy, FH-B cells in high μ-dishes were incubated with CellBrite™ Steady Membrane stain (Biotium, 30108-T) for 30-40 minutes in the environmental chamber of a Nikon C2 Si microscope at 37° C. and 5% CO2. Treatments were added to the cells through a syringe to reach final concentrations of 4 μM FQI1 or 0.01% DMSO. Immediately thereafter, a time-lapse series was acquired by imaging every 30 seconds for 30 minutes at 20× magnification.

Q: What does the source list for CCOc1cc(N(C)C)ccc1-c1cc(=O)[nH]c2cc3c(cc12)OCO3 [FQI2-34, 8-(4-(dimethylamino)-2-ethoxyphenyl)-[1,3]dioxolo[4,5-g]quinolin-6(5H)-one]?
A: fold higher efficacy than FQI1 in inhibiting proliferation of FH-B cells (FH-B cells [1]): 17 fold; GI50 (FH-B cells [1]): 140 nM; stability of LSF to thermal denaturation (LSF): enhanced the stability of LSF to thermal denaturation; decrease in cell spreading (FH-B cells [2]; 200 nM FQI2-34, 30 minutes, vs vehicle): 2.1 fold; fold lower concentration than the effective concentrations for FQI1 (cell compaction) (FH-B cells [2]; 200 nM FQI2-34 vs 4 μM FQI1): 20 fold

Q: Which results are given for CCOc1ccccc1C1CC(=O)Nc2cc3c(cc21)OCO3 (stereo not drawn) [FQI1, 8-(2-ethoxyphenyl)-7,8-dihydro-[1,3]dioxolo[4,5-g]quinolin-6(5H)-one]?
A: GI50 (FH-B cells [1]): 2300 nM; stability of LSF to thermal denaturation (LSF): enhanced the stability of LSF to thermal denaturation; effect of FQI1 on cell spreading area after taxol pretreatment (FH-B cells [2]; 1 μM taxol 30 minutes, then 4 μM FQI1): no detectable effect; reduction in cell spreading area (FH-B cells [2]; 4 μM FQI1, 30-60 minutes, vs vehicle): 1.7 fold; reduction in cell spreading area (FH-B cells [2]; Y-27632 pretreatment 30 minutes, then 4 μM FQI1 30 minutes): 1.2 fold; decrease in median cell spreading area (FH-B cells [2]; vehicle pretreatment 30 minutes, then 4 μM FQI1 10 or 30 minutes): 1.5 fold; reduction in cell spreading area (FH-B cells [2]; vehicle pretreatment (control group of Y-27632 experiment), 4 μM FQI1 30 minutes): 1.6 fold
